Laboratory results taken from patent US11135192B2, “Inhibitors for treating diseases characterized by atrial enlargement or remodeling” (Novartis AG, priority 2012, dated 2021).

What was measured:
[1] = system: patients with heart failure with preserved ejection fraction; assay: Plasma NT-proBNP in the 37-week randomized, double-blind study of LCZ696 compared to valsartan; format: in vivo, human; conditions: for NT-proBNP (pg/ml) at 12 weeks: 12 weeks / NT-proBNP (pg/ml) at 36 weeks: 36 weeks / NT-proBNP (pg/ml) at 12 weeks: Baseline / NT-proBNP (pg/ml) at 36 weeks: Baseline: geometric mean; for NT-proBNP (pg/ml) at 12 weeks: 12 weeks: after 12 weeks of treatment, target LCZ696 200 mg or valsartan 160 mg twice daily; for NT-proBNP (pg/ml) at 36 weeks: 36 weeks: after 36 weeks of treatment; for NT-proBNP (pg/ml) at 12 weeks: Baseline: baseline of patients analysed at 12 weeks; for NT-proBNP (pg/ml) at 36 weeks: Baseline: baseline of patients analysed at 36 weeks
Source text: Men and women aged 40 years or older with a left ventricular ejection fraction of 45% or above, and a documented history of heart failure with associated signs or symptoms (dyspnea on exertion, orthopnea, paroxysmal dyspnea, and peripheral edema) are eligible. Patients are required to have an NT-proBNP>400 pg/mL at screening, be on diuretic therapy, and have a systolic blood pressure less than 140 mm Hg, or 160 mm Hg or less if on three or more blood pressure medications at randomization. Additional inclusion criteria include an estimated glomerular filtration rate (eGFR) of at least 30 ml/min/1.73 m^2 at screening (calculated by the Modification of Diet in Renal Disease formula) and a potassium of no more than 5.2 mmol/L.
(§1) The primary study endpoint is the change from baseline in NT-proBNP assessed at 12 weeks, and is analyzed using the last observation after baseline carried forward. Secondary endpoints include changes in echocardiography measures (left ventricular volumes and ejection fraction, left atrial volume, measures of diastolic function), change in blood pressure, as well as change in New York Heart Association Class (NYHA) clinical composite assessment and quality of life (Kansas City Cardiomyopathy Questionnaire).

[2] = system: patients with heart failure with preserved ejection fraction; assay: Blood pressure change in the same HF-PEF study; format: in vivo, human; conditions: mean (SD)
Description: as §1
(§2) Echocardiography studies are performed at screening, randomization, at week 12, and week 36 or at end of study or early termination visits. Echocardiograms performed at screening are evaluated by local readers for qualifying information. All other echocardiograms are only performed in patients meeting NT-proBNP entry criterion and are evaluated centrally. For assessment of global ventricular size and function, left ventricular end-diastolic and end-systolic volumes are obtained utilizing the Simpson's rule method and left ventricular ejection fraction is derived in the usual fashion. Maximal left atrial dimension is measured in the parasternal long-axis view, and left atrial volume is assessed with the Simpson's rule method and indexed to body surface area. Measurements are made in triplicate in accordance with the recommendations of the American Society of Echocardiography. Blood pressure and heart rate are measured at all study visits with a calibrated standard sphygmomanometer and appropriate size cuff. The use of concomitant medication is recorded at each study visit.

[3] = system: patients with heart failure with preserved ejection fraction; assay: Echocardiography (left atrial and left ventricular measures) in the same HF-PEF study; format: in vivo, human
Description: as §1, §2

[4] = system: patients with heart failure with preserved ejection fraction; assay: Safety and tolerability (adverse events, target dose achieved) in the same HF-PEF study
[5] = system: patients with heart failure with preserved ejection fraction
Description: as §1
The clinical composite assessment is based on a composite of the NYHA functional classification, patient global assessment and major adverse clinical events. […] Patients are determined to be worse if at the endpoint visit they experienced a major adverse cardiac event during the double blind treatment or reported worsening of their NYHA class or patient global assessment. Patients are considered unchanged if they are neither improved nor worsened.

[6] = at 36 weeks, no unit printed in b206 (mm Hg)

Row | Structure (SMILES) | NT-proBNP (pg/ml) at 12 weeks: 12 weeks [1] [pg/mL] | NT-proBNP (pg/ml) at 36 weeks: 36 weeks [1] [pg/mL] | NT-proBNP (pg/ml) at 12 weeks: Baseline [1] [pg/mL] | NT-proBNP (pg/ml) at 36 weeks: Baseline [1] [pg/mL] | diastolic blood pressure reduction ([2]; after 12 weeks of treatment) | systolic blood pressure reduction ([2]; after 12 weeks of treatment) | diastolic blood pressure reduction [2, 6] | systolic blood pressure reduction [2, 6] | LA Volume, Δ from Baseline ([3]; at 36 weeks) [mL] | LA dimension, Δ from Baseline ([3]; at 36 weeks) [cm] | Relative wall thickness, Δ from Baseline ([3]; at 36 weeks) | LA Volume, Baseline ([3]; baseline) [mL] | LA dimension, Baseline ([3]; baseline) [cm] | other results
1 | CCCCC(=O)N(Cc1ccc(-c2ccccc2-c2nnn[nH]2)cc1)[C@H](C(=O)O)C(C)C [Valsartan, (S)—N-valeryl-N-{[2′-(1H-tetrazole-5-yl)-biphenyl-4-yl]-methyl}-valine, reference compound] | 835 | 607 | 862 | 822 | 2.1 (11) mm Hg | 2.9 (17) mm Hg | 0.34 (11.5) | 1.5 (18) | 0.37 | −0.08 | +0.01% | 68.28 | 3.73 | LA Volume Index, Δ from Baseline ([3]; at 36 weeks): 0.31 ml/m^2; LV mass index, Δ from Baseline ([3]; at 36 weeks): −1.93 g/m^2; LA Volume Index, Baseline ([3]; baseline): 36.80 ml/m^2; LV mass index, Baseline ([3]; baseline): 79.45 g/m^2; deaths ([4]; among the serious adverse events): two; adverse event atrial fibrillation, number of patients ([4]; during the trial): 8 patients; adverse event atrial fibrillation, percent of patients ([4]; during the trial): 5.3%; one or more serious adverse events, number of patients ([4]; during the trial): 30 patients; one or more serious adverse events, percent of patients ([4]; during the trial): 20%; Angio-oedema, patients ([4]; the LCZ696 patient did not need admission to hospital): no patients
2 | CCCCC(=O)N(Cc1ccc(-c2ccccc2-c2nnn[n-]2)cc1)C(C(=O)[O-])C(C)C.CCCCC(=O)N(Cc1ccc(-c2ccccc2-c2nnn[n-]2)cc1)C(C(=O)[O-])C(C)C.CCOC(=O)C(C)CC(Cc1ccc(-c2ccccc2)cc1)NC(=O)CCC(=O)[O-].CCOC(=O)C(C)CC(Cc1ccc(-c2ccccc2)cc1)NC(=O)CCC(=O)[O-].O.O.O.O.O.[Na+].[Na+].[Na+].[Na+].[Na+].[Na+] [LCZ696, trisodium [3-((1S,3R)-1-biphenyl-4-ylmethyl-3-ethoxycarbonyl-1-butylcarbamoyl) propionate-(S)-3′-methyl-2′-(pentanoyl(2″-(tetrazol-5-ylate)biphenyl-4′-ylmethyl)amino)butyrate]hemipentahydrate] | 605 | 496 | 783 | 763 | 4.9 (10) mm Hg | 9.3 (SD 14) mm Hg | 5.1 (10.8) | 7.5 (15) | -4.61 | −0.15 | +0.01% | 65.26 | 3.68 | reduction in NT-proBNP in patients with diabetes compared with patients without diabetes ([1]; 12 weeks, prespecified subgroup, interaction p=0.02): differentially greater reduction; reduction in NT-proBNP versus valsartan after adjustment for the change in blood pressure ([1]; 12 weeks, p=0.01): greater reduction; NT-proBNP versus baseline ([1]; 36 weeks): remained reduced from baseline; early reduction in NT-proBNP compared with the valsartan group ([1]; after 4 weeks of treatment, p=0.083): not significant; Left atrial volume (result in words) ([3]; after 36 weeks of treatment, p=0.003): reduced significantly; left atrial dimension (result in words) ([3]; after 36 weeks of treatment, p=0.034): reduced significantly; NYHA class improvement between groups ([5]; at 12 weeks, p=0.11): did not differ significantly; NYHA class compared with the valsartan group ([5]; at 36 weeks, p=0.05): improvement
